The results in this text go back to US9686994B2, “Use of ALS inhibitor herbicides for control of unwanted vegetation in ALS inhibitor herbicide tolerant beta vulgaris plants” (BAYER CROPSCIENCE AG, priority 2012, dated 2017).

Entries after “also recorded” stand apart in the source; their conditions may differ.

In test [1] the test system is sugar beet plants where the tryptophan at position 569 of the encoded ALS enzyme is substituted by a leucine, Line B. Briefly: Greenhouse trial: ALS inhibitor treatment of sugar beets in direct comparison, Line B. Format: in vivo, Beta vulgaris L. ssp. vulgaris. The note with it: day 14 after application at BBCH 14; scale 0% no damage to 100% completely killed; g/ha: foramsulfuron 13, iodosulfuron-methyl-Na 3.5, amidosulfuron 15, thiencarbazone-methyl 7.5, Bisbyribac-Na 50, metosulam 15. The protocol:
(§1) Mutated sugar beet plants comprising SEQ.ID.NO:3 and SEQ.ID.NO:5 (on two different alleles) for use in the context of the present invention (as described in Example 4 above, “Line A”) were treated with different ALS inhibitors in direct comparison with sugar beet plants where the tryptophan at position 569 of the encoded ALS enzyme is substituted by a leucine (“Line B”), with sugar beet plants described in WO 98/02527 where the proline at position 188 of the encoded ALS enzyme is substituted by a serine (“Line C”), and a traditional variety (wild-type) sugar beet plant not having a mutation at positions 569 and 188 (“Line WT”).
(§2) Several groups of seeds of the four different mentioned sugar beet plants were sown separately in the greenhouse and grew up to stage BBCH 14 for Beta vulgaris L. ssp. vulgaris (i.e. 4 leaves (the second pair) unfolded) according to the BBCH monograph “Growth stages of mono- and dicotyledonous plants”, 2nd edition, 2001, ed. Uwe Meier, Federal Biological Research Centre for Agriculture and Forestry (Biologische Bundesanstalt für Land and Forstwirtschaft). Subsequently, the resulting separate groups of sugar beet plants were each individually treated with an ALS inhibitor (ALS-in) in the amounts (g/ha) indicated in Table 1.
(§3) On day 14 after application of the respective ALS inhibitor, the damage (i.e. the phytotoxicity) for each group of sugar beet plants was rated on a stratified scale from 0% (i.e. no damage, no phytotoxicity) to 100% (i.e. the plants were completely killed).

The subject of test [2] is regenerated sugar beet plants having the mutated SEQ.ID.NO:3 (heterozygote for this mutation). Description: Example 3: ALS inhibitor treatment of sugar beets, heterozygote mutant. Type of test: in vivo. Conditions: for resistance of the (heterozygote) mutated plants to the herbicide: foramsulfuron 12.5 g/ha, amidosulfuron 15 g/ha, iodosulfuron 3.5 g/ha, thiencarbazone-methyl 7.5 g/ha, up to 3 applications. An excerpt:
(§4) The behaviour of regenerated sugar beet plants having the mutated SEQ.ID.NO:3 (heterozygote for this mutation) and a wild-type sugar beet commercial variety was compared.

The test system of test [3] is sugar beet plants where the proline at position 188 of the encoded ALS enzyme is substituted by a serine, Line C. Description: Greenhouse trial: ALS inhibitor treatment of sugar beets in direct comparison, Line C. Conditions: day 14 after application at BBCH 14; scale 0% no damage to 100% completely killed; g/ha: foramsulfuron 13, iodosulfuron-methyl-Na 3.5, amidosulfuron 15, thiencarbazone-methyl 7.5, Bisbyribac-Na 50, metosulam 15. Format: in vivo, Beta vulgaris L. ssp. vulgaris. Here is the method: as §1, §2, §3

Test [4] has as its system traditional variety (wild-type) sugar beet plant not having a mutation at positions 569 and 188, Line WT. Briefly: Greenhouse trial: ALS inhibitor treatment of sugar beets in direct comparison, Line WT. Type of test: in vivo, Beta vulgaris L. ssp. vulgaris. The note with it: day 14 after application at BBCH 14; scale 0% no damage to 100% completely killed; g/ha: foramsulfuron 13, iodosulfuron-methyl-Na 3.5, amidosulfuron 15, thiencarbazone-methyl 7.5, Bisbyribac-Na 50, metosulam 15. Here is the method:
as §1, §2, §3

For test [5], the system named is wild-type sugar beet commercial variety. Briefly: Example 3: ALS inhibitor treatment of sugar beets, wild type. Type of test: in vivo. The note with it: foramsulfuron 12.5 g/ha, amidosulfuron 15 g/ha, iodosulfuron 3.5 g/ha, thiencarbazone-methyl 7.5 g/ha; with or without rapeseed oil methyl ester.
Excerpt: as §4

Test [6] concerns dual mutant sugar beet plant comprising SEQ.ID.NO:3 and SEQ.ID.NO:5 (NCIMB 42050). Description: Example 4: ALS inhibitor treatment of sugar beets having further mutations in the ALS gene. Format: in vivo. The note with it: compared with the single mutant (position 569); even when put in composition with organic compounds. The source says: Subsequently, a mutated sugar beet plant was developed comprising SEQ.ID.NO:3 and SEQ.ID.NO:5 (on two different alleles). Such resulting dual mutant has been deposited under the Budapest Treaty under NCIMB 42050. A plant comprising both SEQ.ID.NO:3 and SEQ.ID.NO:5 can be generated by relying on several techniques, including, for instance, a subsequent mutagenesis step applied to the single mutant NCIMB 42051.
Then the resistance of this dual mutant plant (a mutation in one allele at amino acid 569 and a mutation in the other allele at amino acid 188) was compared with the single mutant (a mutation at position 569) sugar beet.

In test [7] the test system is mutated sugar beet plants comprising SEQ.ID.NO:3 and SEQ.ID.NO:5 (on two different alleles), Line A. Description: Greenhouse trial: ALS inhibitor treatment of sugar beets in direct comparison, Line A. Type of test: in vivo, Beta vulgaris L. ssp. vulgaris. Conditions: day 14 after application at BBCH 14; scale 0% no damage to 100% completely killed; g/ha: foramsulfuron 13, iodosulfuron-methyl-Na 3.5, amidosulfuron 15, thiencarbazone-methyl 7.5, Bisbyribac-Na 50, metosulam 15. Here is the method:
as §1, §2, §3

In the case of `COc1cc(OC)nc(NC(=O)NS(=O)(=O)N(C)S(C)(=O)=O)n1` [Amidosulfuron, amidosulfuron], in test [1], the “damage (phytotoxicity), average rating, Line B” value (shortened to “damage (phytotoxicity) … Line B”) is given as 37.5%. For the same molecule, the “resistance of the (heterozygote) mutated plants to the herbicide” value in test [2] is “same level of resistance”. Moreover, the “damage (phytotoxicity), average rating, Line C” value (shortened to “damage (phytotoxicity) … Line C”) in test [3] is listed as 51.9%. Besides, the “damage (phytotoxicity), average rating, Line WT” value (shortened to “damage (phytotoxicity) … Line WT”) in test [4] worked out at 73.1%. The “sensitivity of the wild-type plant to the herbicide” value (“sensitivity of the wild-type plant” below) in test [5] is given as “very sensitive”. In test [6], the “resistance of the dual mutant plant to the herbicide” value is “good resistance”. Also, in test [7], the “damage (phytotoxicity), average rating, Line A” value (from here on “damage (phytotoxicity) … Line A”) is reported as 6.3%.
`COc1cc(OC)nc(Oc2cccc(Oc3nc(OC)cc(OC)n3)c2C(=O)O)n1` [Bisbyribac-Na, bispyribac-sodium]: in test [1], the “damage (phytotoxicity) … Line B” value was 38.1%. Further, in test [3], the “damage (phytotoxicity) … Line C” value turned out to be 71.7%. The “damage (phytotoxicity) … Line WT” value in test [4] worked out at 80.0%. Besides, the “damage (phytotoxicity) … Line A” value in test [7] was 17.5%.
For `COc1cc(OC)nc(NC(=O)NS(=O)(=O)c2cc(NC=O)ccc2C(=O)N(C)C)n1` [Foramsulfuron, foramsulfuron], the “damage (phytotoxicity) … Line B” value in test [1] was 45.6%. For the same molecule, the “resistance of the (heterozygote) mutated plants to the herbicide” value in test [2] is given as “good resistance; also recorded: best resistance”. Also, the “damage (phytotoxicity) … Line C” value in test [3] turned out to be 77.5%. Also, the “damage (phytotoxicity) … Line WT” value in test [4] turned out to be 80.0%. Besides, the “sensitivity of the wild-type plant” value in test [5] is listed as “very sensitive”. Also, in test [7], the “damage (phytotoxicity) … Line A” value was determined as 26.9%.
`COC(=O)c1ccc(I)cc1S(=O)(=O)[N-]C(=O)Nc1nc(C)nc(OC)n1.[Na+]` [Iodosulfuron-methyl-Na, iodosulfuron-methyl-sodium]: the “damage (phytotoxicity) … Line B” value in test [1] came out at 38.8%. The “damage (phytotoxicity) … Line C” value in test [3] amounted to 80.0%. The “damage (phytotoxicity) … Line WT” value in test [4] is given as 82.5%. Also, in test [7], the “damage (phytotoxicity) … Line A” value is on record as 22.5%.
As for `COc1cc(OC)n2nc(S(=O)(=O)Nc3c(Cl)ccc(C)c3Cl)nc2n1` [Metosulam, metosulam], the “damage (phytotoxicity) … Line B” value in test [1] stood at 40.6%. In test [3], the “damage (phytotoxicity) … Line C” value is 69.4%. For the same molecule, the “damage (phytotoxicity) … Line WT” value in test [4] is on record as 79.4%. Also, the “damage (phytotoxicity) … Line A” value in test [7] stood at 13.1%.
Turning to `COC(=O)c1csc(C)c1S(=O)(=O)NC(=O)n1nc(OC)n(C)c1=O` [Thiencarbazone-methyl, thiencarbazone-methyl], the “damage (phytotoxicity) … Line B” value in test [1] is reported as 35.6%. In addition, the “resistance of the (heterozygote) mutated plants to the herbicide” value in test [2] is “about the same level of resistance as for iodosulfuron”. Besides, the “damage (phytotoxicity) … Line C” value in test [3] is recorded as 37.5%. The “damage (phytotoxicity) … Line WT” value in test [4] is reported as 84.4%. Besides, in test [5], the “sensitivity of the wild-type plant” value is “very sensitive”. In addition, the “resistance of the dual mutant plant to the herbicide” value in test [6] was “good resistance”. Moreover, the “damage (phytotoxicity) … Line A” value in test [7] came out at 8.1%.
Consider `COc1nc(C)nc(NC(=O)NS(=O)(=O)c2cc(I)ccc2C(=O)O)n1` [iodosulfuron], for which the “resistance of the (heterozygote) mutated plants to the herbicide” value in test [2] is on record as “good level of resistance”. Further, in test [2] (iodosulfuron 3.5 g/ha with 25 g/ha rapeseed oil methyl ester), the “resistance of the (heterozygote) mutated plants, herbicide applied together with the organic compound” value is on record as “resistance declined”. Also, the “sensitivity of the wild-type plant” value in test [5] is “very sensitive”.
